In publication PMC7407272, “Induction of Lysosome Membrane Permeabilization as a Therapeutic Strategy to Target Pancreatic Cancer Stem Cells” (Cancers, 2020):

What was measured:
FGFR3(G697C) = biological target: T1, FGFR3(G697C) (Homo sapiens, UniProt P22607, G697C); experiment: KINOMEscan; format: binding; conditions: read-out: % Ctrl
T1 construct: purchased DiscoveRx KINOMEscan

MST1 = biological target: T2, MST1 (Homo sapiens, UniProt Q13043); experiment: KINOMEscan; format: binding; conditions: read-out: % Ctrl
T2 construct: purchased DiscoveRx KINOMEscan

FLT3(N841I) = biological target: T3, FLT3(N841I) (Homo sapiens, UniProt P36888, N841I); experiment: KINOMEscan; format: binding; conditions: read-out: % Ctrl
T3 construct: purchased DiscoveRx KINOMEscan

WEE2 = biological target: T4, WEE2 (Homo sapiens, UniProt P0C1S8); experiment: KINOMEscan; format: binding; conditions: read-out: % Ctrl
T4 construct: purchased DiscoveRx KINOMEscan
T4 sequence (P0C1S8 whole entry): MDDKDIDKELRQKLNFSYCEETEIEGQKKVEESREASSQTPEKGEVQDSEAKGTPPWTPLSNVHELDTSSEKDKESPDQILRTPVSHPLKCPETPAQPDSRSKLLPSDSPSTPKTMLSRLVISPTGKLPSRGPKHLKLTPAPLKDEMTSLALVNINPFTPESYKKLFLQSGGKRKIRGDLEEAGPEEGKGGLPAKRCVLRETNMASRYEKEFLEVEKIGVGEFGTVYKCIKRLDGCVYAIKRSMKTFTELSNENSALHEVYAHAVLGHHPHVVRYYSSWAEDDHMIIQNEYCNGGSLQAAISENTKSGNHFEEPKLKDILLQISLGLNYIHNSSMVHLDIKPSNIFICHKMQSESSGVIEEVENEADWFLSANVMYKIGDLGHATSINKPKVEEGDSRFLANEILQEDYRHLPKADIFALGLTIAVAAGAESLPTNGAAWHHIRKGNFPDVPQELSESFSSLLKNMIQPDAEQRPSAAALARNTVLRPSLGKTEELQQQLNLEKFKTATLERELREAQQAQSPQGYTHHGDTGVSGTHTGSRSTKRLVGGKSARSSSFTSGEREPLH

GAK = biological target: T5, GAK (Homo sapiens, UniProt O14976); experiment: KINOMEscan; format: binding; conditions: read-out: % Ctrl
T5 construct: purchased DiscoveRx KINOMEscan

PIK3CB = biological target: T6, PIK3CB (Homo sapiens, UniProt P42338); experiment: KINOMEscan; format: binding; conditions: read-out: % Ctrl
T6 construct: purchased DiscoveRx KINOMEscan
T6 sequence (P42338 whole entry): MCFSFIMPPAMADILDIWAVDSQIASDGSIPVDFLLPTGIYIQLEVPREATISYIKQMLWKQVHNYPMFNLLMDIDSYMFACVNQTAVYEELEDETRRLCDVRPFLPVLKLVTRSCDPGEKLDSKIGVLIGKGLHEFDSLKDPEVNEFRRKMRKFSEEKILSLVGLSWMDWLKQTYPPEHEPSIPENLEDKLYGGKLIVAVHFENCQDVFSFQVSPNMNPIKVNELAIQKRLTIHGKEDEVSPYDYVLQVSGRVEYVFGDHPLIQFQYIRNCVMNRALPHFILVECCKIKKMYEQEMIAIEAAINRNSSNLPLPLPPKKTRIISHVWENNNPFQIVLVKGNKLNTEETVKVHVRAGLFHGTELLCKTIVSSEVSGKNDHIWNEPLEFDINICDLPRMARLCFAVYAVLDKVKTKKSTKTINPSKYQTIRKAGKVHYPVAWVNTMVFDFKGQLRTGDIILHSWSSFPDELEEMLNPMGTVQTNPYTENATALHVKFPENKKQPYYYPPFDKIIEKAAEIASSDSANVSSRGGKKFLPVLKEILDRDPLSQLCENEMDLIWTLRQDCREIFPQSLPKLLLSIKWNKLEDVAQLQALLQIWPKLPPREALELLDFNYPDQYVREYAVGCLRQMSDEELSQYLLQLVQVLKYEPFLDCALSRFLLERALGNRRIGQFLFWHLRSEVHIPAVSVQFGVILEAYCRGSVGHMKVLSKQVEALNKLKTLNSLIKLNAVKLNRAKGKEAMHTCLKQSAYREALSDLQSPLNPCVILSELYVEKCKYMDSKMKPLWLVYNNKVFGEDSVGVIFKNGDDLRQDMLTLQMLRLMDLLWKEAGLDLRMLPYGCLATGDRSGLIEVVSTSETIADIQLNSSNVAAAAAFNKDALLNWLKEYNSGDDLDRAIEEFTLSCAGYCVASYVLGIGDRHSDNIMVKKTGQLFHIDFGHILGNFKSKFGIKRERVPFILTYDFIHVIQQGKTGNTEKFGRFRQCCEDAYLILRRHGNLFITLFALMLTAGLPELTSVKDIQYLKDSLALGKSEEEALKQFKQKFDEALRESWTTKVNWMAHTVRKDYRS

MEK4 = biological target: T7, MEK4 (Homo sapiens, UniProt P45985); experiment: KINOMEscan; format: binding; conditions: read-out: % Ctrl
T7 construct: purchased DiscoveRx KINOMEscan

FLT1 = biological target: T8, FLT1 (Homo sapiens, UniProt P17948); experiment: KINOMEscan; format: binding; conditions: read-out: % Ctrl
T8 construct: purchased DiscoveRx KINOMEscan
T8 sequence (P17948 27-1338): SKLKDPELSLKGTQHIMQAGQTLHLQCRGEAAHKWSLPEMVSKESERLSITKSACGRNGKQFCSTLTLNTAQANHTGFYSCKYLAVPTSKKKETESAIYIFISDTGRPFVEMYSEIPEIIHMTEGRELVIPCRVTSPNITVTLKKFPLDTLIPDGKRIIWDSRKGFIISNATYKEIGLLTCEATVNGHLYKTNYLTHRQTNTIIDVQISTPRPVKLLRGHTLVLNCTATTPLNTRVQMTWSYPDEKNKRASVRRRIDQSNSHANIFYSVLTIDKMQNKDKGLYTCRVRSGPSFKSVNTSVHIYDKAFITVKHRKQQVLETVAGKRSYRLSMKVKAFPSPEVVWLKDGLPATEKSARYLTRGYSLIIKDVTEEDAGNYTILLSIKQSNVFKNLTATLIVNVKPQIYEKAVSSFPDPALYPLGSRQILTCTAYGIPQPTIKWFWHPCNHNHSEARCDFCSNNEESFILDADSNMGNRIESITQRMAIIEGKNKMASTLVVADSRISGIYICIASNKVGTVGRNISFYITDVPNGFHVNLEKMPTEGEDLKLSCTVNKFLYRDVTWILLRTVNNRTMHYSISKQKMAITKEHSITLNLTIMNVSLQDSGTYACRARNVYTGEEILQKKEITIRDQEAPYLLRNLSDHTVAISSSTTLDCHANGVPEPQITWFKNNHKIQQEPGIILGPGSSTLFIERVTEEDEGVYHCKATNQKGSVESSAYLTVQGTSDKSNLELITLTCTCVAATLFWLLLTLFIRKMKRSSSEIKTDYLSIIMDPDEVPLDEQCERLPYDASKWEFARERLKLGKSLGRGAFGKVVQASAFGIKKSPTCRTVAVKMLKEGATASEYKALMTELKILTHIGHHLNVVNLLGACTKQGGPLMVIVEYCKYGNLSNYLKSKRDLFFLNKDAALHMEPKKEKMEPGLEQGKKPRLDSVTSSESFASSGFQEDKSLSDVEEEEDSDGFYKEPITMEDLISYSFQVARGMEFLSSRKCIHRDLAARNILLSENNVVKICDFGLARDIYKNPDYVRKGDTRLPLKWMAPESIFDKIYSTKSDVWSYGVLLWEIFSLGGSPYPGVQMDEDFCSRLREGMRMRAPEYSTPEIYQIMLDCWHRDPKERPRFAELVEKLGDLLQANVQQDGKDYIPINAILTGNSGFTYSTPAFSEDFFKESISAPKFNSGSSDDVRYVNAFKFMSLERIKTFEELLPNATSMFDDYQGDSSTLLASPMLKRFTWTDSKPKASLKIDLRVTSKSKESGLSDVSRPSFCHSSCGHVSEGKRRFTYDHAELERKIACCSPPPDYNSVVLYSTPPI

[1] = tested on: re-plated PDAC2-derived spheres; experiment: Cytosolic cysteine cathepsin activity; format: cell-based, human; conditions: 1.25 or 2.5 µM, 6 h
Method: Spheres were re-plated, and then treated the following day with the indicated concentration of compounds for 6 h in CSC media. Cells were subsequently placed on ice and extracted with either 25 µg/mL or 250 µg/mL of digitonin in 250 mM sucrose, 20 mM HEPES, 10 mM KCl, 1.5 mM MgCl2, 1 mM EDTA, 1 mM EGTA, 1 mM pefablock, pH 7.5. The extracts were taken and spun down briefly to eliminate floating cells. Cathepsin activity was measured in a 96 well format by measuring cleavage of zFR-AMC (Z-Phe-Arg-AMC. Z: N-carbobenzyloxy; 7-Amino-4-methylcoumarin), as previously described.

SGK2 = biological target: T9, SGK2 (Homo sapiens, UniProt Q9HBY8); experiment: KINOMEscan; format: binding; conditions: read-out: % Ctrl
T9 construct: purchased DiscoveRx KINOMEscan

LIMK2 = biological target: T10, LIMK2 (Homo sapiens, UniProt P53671); experiment: KINOMEscan; format: binding; conditions: read-out: % Ctrl
T10 construct: purchased DiscoveRx KINOMEscan
T10 sequence (P53671 whole entry): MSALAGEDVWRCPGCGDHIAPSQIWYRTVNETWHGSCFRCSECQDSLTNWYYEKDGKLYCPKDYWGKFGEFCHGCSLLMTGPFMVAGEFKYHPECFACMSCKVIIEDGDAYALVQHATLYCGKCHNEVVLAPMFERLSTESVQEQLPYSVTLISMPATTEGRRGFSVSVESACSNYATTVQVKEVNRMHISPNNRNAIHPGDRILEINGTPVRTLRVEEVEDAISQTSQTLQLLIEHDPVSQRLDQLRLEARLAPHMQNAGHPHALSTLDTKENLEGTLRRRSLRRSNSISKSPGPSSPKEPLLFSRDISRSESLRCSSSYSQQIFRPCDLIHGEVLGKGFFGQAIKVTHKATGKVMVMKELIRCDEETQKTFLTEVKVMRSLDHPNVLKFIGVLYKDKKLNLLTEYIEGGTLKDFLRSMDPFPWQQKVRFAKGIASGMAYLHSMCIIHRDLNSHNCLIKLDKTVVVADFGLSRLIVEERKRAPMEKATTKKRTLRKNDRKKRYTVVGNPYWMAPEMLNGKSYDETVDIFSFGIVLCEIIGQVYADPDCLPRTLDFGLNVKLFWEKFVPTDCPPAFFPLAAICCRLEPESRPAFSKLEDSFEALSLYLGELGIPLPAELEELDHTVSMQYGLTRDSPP

ABL1(H396P)-P = biological target: T11, ABL1(H396P)-P (Homo sapiens, UniProt P00519, H396P); experiment: KINOMEscan; format: binding; conditions: read-out: % Ctrl
T11 construct: purchased DiscoveRx KINOMEscan

PCTK3 = biological target: T12, PCTK3 (Homo sapiens, UniProt Q07002); experiment: KINOMEscan; format: binding; conditions: read-out: % Ctrl
T12 construct: purchased DiscoveRx KINOMEscan
T12 sequence (Q07002 whole entry): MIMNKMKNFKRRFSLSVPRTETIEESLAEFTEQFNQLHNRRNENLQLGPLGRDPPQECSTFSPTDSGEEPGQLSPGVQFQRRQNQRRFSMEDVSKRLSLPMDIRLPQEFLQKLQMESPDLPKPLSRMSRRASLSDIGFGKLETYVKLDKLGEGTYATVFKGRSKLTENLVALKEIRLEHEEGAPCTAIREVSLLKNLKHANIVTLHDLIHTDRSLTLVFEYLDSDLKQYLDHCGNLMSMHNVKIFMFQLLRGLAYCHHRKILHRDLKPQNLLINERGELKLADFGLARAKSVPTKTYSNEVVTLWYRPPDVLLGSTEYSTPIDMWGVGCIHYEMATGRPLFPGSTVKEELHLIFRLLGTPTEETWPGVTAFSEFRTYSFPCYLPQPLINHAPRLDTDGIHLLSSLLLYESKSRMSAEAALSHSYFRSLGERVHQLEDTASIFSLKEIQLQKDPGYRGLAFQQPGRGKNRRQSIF

MLK2 = biological target: T13, MLK2 (Homo sapiens, UniProt Q02779); experiment: KINOMEscan; format: binding; conditions: read-out: % Ctrl
T13 construct: purchased DiscoveRx KINOMEscan
T13 sequence (Q02779 whole entry): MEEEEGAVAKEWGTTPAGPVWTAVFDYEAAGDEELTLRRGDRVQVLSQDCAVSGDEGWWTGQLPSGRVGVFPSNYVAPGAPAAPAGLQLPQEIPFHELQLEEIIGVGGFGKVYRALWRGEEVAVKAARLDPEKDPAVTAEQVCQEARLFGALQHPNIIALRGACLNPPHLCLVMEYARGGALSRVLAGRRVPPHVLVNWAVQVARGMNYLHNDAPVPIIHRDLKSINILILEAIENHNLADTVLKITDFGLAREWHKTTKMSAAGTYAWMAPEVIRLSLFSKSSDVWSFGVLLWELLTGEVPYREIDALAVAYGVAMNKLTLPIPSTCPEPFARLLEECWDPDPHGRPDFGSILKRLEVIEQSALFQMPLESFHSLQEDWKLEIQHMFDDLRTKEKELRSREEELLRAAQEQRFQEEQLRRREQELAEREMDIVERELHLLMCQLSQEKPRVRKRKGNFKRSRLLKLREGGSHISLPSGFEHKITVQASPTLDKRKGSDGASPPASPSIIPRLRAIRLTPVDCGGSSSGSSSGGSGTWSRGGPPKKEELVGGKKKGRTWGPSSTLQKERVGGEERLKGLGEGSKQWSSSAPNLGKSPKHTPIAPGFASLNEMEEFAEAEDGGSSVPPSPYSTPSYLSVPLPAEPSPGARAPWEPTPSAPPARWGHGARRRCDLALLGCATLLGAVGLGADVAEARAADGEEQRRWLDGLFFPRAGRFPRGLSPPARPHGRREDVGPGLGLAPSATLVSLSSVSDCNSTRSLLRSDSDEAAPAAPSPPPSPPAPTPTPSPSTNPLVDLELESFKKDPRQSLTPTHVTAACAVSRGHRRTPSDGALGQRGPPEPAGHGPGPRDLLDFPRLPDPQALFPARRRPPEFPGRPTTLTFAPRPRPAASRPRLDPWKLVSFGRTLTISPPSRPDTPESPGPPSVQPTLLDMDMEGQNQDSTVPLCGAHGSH

PDAC4 3D spheres = experiment: Viability curves on PDAC4 3D spheres; format: cell-based, human; conditions: Homo sapiens, 30 h
Excerpt: The PDAC patient-derived xenograft (PDX) Panc354 (referred to hereafter as PDAC3) was obtained from Dr. Manuel Hidalgo under a Material Transfer Agreement with the Spanish National Cancer Centre (CNIO), Madrid, Spain (Reference no. I409181220BSMH). PDAC1, PDAC2 and PDAC4 PDXs were established from primary patient resected tumors. Samples were provided by the BioBank Hospital Ramón y Cajal-IRYCIS (PT13/0010/0002), integrated in the Spanish National Biobanks Network and they were processed following standard operating procedures with the appropriate approval of the Ethical and Scientific Committees (Control no. No. Control: DE-BIOB-73 AC65, RG.BIOB-96 REV, and CI-BIOB-08-10-01 rev), with informed consent and according to Declaration of Helsinki principles. Primary patient tumors were subcutaneously implanted in immunocompromised female 6- to 8-week-old NU-Foxn1nu nude mice (Envigo, Barcelona, Spain) and subsequently passage in vivo to establish PDX PDAC1, PDAC2 and PDAC4. Primary PDX-derived in vitro cultures were established as previously detailed. […]
Pancreatic CSC spheres were generated as previously described in ultra-low attachment plates (Corning) using CSC media: serum-free DMEM/F12 medium (1:1; #21331-020; Gibco, Waltham, MA, USA), supplemented with Pen/Strep (1:100; #1500-063; Gibco, Waltham, MA, USA), Fungizone (1:250; #15290-018; Gibco), L-Glutamine (1:100; #25030-024; Gibco, Waltham, MA, USA), B-27 (1:50; #17504-044; Gibco, Waltham, MA, USA) and basic fibroblast growth factor (FGF-b) (1:5000; Gibco, Waltham, MA, USA). […] To quantify spheres of > 40 μm, 1 mL of sample volume was analyzed with a CASY® Cell Counter (Roche Applied Sciences, Mannheim, Germany). […]

For CN1CCC(CNc2ccc3ncc(C(=O)Nc4cccc(OC(F)(F)F)c4)n3n2)CC1 [Cpd 2], the remaining binding at 1 µM (FGFR3(G697C)) was 99%, the remaining binding at 1 µM (MST1) was 100% and the remaining binding at 1 µM (FLT3(N841I)) was 60%. For the same compound, the remaining binding at 1 µM (WEE2) was 92%, the remaining binding at 1 µM (GAK) was 89% and the remaining binding at 1 µM (PIK3CB) was 91%. The remaining binding at 1 µM (MEK4) was 100%, the remaining binding at 1 µM (FLT1) was 100% and the “cytosolic cysteine cathepsin activity” value [1] was “increased cytosolic cysteine cathepsin activity”. For the same compound, the remaining binding at 1 µM (SGK2) was 100%, the remaining binding at 1 µM (LIMK2) was 99% and the remaining binding at 1 µM (ABL1(H396P)-P) was 100%. The remaining binding at 1 µM (PCTK3) was 100%, the remaining binding at 1 µM (MLK2) was 100% and the EC50 (PDAC4 3D spheres) was 7.17 µM.
